From BindingDB's records for doi:10.1038/46290 (University of Bristol, 1999)

Target: Glutamate receptor ionotropic, kainate 2 (Homo sapiens, UniProt Q13002)
Sequence (Q13002 whole entry): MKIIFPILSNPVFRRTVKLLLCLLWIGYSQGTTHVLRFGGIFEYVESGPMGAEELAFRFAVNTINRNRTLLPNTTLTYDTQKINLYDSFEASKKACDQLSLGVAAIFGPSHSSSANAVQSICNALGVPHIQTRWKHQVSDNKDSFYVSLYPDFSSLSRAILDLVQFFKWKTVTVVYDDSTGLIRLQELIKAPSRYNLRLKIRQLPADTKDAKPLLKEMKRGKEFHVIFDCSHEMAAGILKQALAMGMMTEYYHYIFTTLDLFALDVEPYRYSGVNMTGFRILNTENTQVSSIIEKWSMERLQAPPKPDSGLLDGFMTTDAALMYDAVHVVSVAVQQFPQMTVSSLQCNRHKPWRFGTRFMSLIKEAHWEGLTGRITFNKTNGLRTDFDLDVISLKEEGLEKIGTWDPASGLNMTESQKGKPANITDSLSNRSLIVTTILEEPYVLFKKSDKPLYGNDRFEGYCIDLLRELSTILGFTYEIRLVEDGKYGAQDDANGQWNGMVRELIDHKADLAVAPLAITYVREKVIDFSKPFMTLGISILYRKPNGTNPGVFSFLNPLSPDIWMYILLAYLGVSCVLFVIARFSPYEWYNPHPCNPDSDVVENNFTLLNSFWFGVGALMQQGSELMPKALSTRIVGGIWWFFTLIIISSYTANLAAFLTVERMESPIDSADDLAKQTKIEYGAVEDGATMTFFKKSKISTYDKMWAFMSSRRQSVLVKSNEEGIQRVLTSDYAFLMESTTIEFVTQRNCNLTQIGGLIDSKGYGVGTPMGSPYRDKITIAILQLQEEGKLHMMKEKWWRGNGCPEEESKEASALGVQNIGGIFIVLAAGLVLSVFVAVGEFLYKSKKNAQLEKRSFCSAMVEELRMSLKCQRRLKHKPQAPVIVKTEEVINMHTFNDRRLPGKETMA

Ki: > 10 µM
Structure (SMILES): O=C(O)c1ccc(C[C@H]2CC[C@H]3CN[C@H](C(=O)O)C[C@H]3C2)cc1 [LY 382884]
